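In this assay, cells in 96-well plates receive the compound at five concentrations for 48 hours. Endpoints are linearly interpolated between the surrounding concentrations. GI50 = concentration required for 50% inhibition of growth.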 Active and inactive are the calls of the source. No stated cut-off is given here; in the data, active = GI50 up to about 1.1 µM and inactive = higher. A value given as a limit tells only on which side of the number the result lay.

Consider 11 molecules from ChEMBL document CHEMBL1201862, “PubChem BioAssay data set” (2004).

Some test systems named below: HOP-92; A498; UACC-62; ACHN; OVCAR-3; RPMI-8226; SK-MEL-5; OVCAR-5; OVCAR-4; CCRF-CEM; NCI-H23; UACC-257; NCI-H226; A549; SR.
Assay in all cases: DTP human tumour cell line panel, 48 h

In the case of `CC1=C(C(=O)O)N2C(=O)[C@@H](NC(=O)C(c3ccccc3)N3CSC(=S)N(C(C)C)C3)C2SC1` (stereo partly specified), the GI50 with HOP-92, with A498, in the test on UACC-62, in the test with ACHN, with OVCAR-3 and with RPMI-8226 was > 100 µM (inactive) each time. The GI50 with SK-MEL-5, with OVCAR-5, with OVCAR-4, with CCRF-CEM, in the test on NCI-H23 and in the test with UACC-257 was > 100 µM (inactive) each time.
Consider `CC(C)(C)C(=O)C1CC(=O)c2ccccc2C1=O` (stereo unspecified), for which the GI50 (usually the concentration at which growth is held to half of that of the control) was 24.8 µM (inactive) in the test on HOP-92; 42.3 µM (inactive) in the test on A498; 25.8 µM (inactive) in the test on UACC-62; 44.7 µM (inactive) with ACHN; 35.2 µM (inactive) in the test with NCI-H226; 24.3 µM (inactive) in the test with OVCAR-3. For the same molecule, the GI50 in the test with RPMI-8226 was 23 µM (inactive); in the test on SK-MEL-5, 32.4 µM (inactive); in the test on OVCAR-5 it was 37.1 µM (inactive); in the test with OVCAR-4, 33 µM (inactive); with CCRF-CEM, 33.4 µM (inactive); in the test with NCI-H23 it was 20.7 µM (inactive). In addition, the GI50 with A549 is 38.2 µM (inactive); with UACC-257 it was 18.2 µM (inactive).
As to `N#CC(C#N)c1ccc(C(=O)N2CCC[C@H]2CO)cc1`, the GI50 in the test with HOP-92 was 58.2 µM (inactive); with UACC-62, > 100 µM (inactive); in the test on ACHN it was > 100 µM (inactive); in the test on OVCAR-3, > 100 µM (inactive); in the test on RPMI-8226, > 100 µM (inactive); with SK-MEL-5, 0.471 µM (active). Moreover, the GI50 in the test on OVCAR-5, in the test on OVCAR-4, in the test on CCRF-CEM, in the test with NCI-H23, in the test with A549 and in the test with UACC-257 was > 100 µM (inactive) throughout.
For `C#CCC(O)c1ccccc1C(O)CC#C` (stereo unspecified), the GI50 in the test with HOP-92 was 30.8 µM (inactive); in the test with UACC-62, > 100 µM (inactive); in the test with ACHN it was 75.5 µM (inactive); in the test with OVCAR-3, > 100 µM (inactive); with RPMI-8226, > 100 µM (inactive); with SK-MEL-5, > 100 µM (inactive). The GI50 in the test on OVCAR-5, with OVCAR-4, in the test with CCRF-CEM, in the test with NCI-H23, in the test with A549 and in the test on UACC-257 was > 100 µM (inactive) in each case.
On to `COc1cc2ccc3c4ccccc4cnc3c2cc1OC`, for which the GI50 with HOP-92, with UACC-62, with ACHN, with NCI-H226, with OVCAR-3 and in the test on RPMI-8226 was > 100 µM (inactive) in each case. For the same molecule, the GI50 with SR, with SK-MEL-5, with OVCAR-5, with OVCAR-4, in the test with CCRF-CEM and in the test on NCI-H23 was > 100 µM (inactive) in each case. In addition, the GI50 in the test with A549 and in the test with UACC-257 was > 100 µM (inactive) throughout.
Consider `Cc1cc(C)nc(NS(=O)(=O)c2ccc(Nc3c4ccccc4nc4c(C(=O)Nc5ccc(S(=O)(=O)N=C(N)N)cc5)cccc34)cc2)n1`, for which the GI50 is 37.5 µM (inactive) in the test with HOP-92; > 100 µM (inactive) in the test on A498; > 100 µM (inactive) in the test with UACC-62; > 100 µM (inactive) in the test on ACHN; > 100 µM (inactive) with OVCAR-3; > 100 µM (inactive) in the test with RPMI-8226. Also, the GI50 in the test with SK-MEL-5 is > 100 µM (inactive); in the test with OVCAR-5 it was 51.8 µM (inactive); in the test on OVCAR-4, > 100 µM (inactive); with CCRF-CEM, > 100 µM (inactive); with NCI-H23 it was > 100 µM (inactive); with A549, > 100 µM (inactive). Besides, the GI50 in the test on UACC-257 was > 100 µM (inactive).
As for `O=c1cccccc1NCCCCCCCCCNc1cccccc1=O`, the GI50 with HOP-92 was 18.7 µM (inactive); in the test on UACC-62, 12.5 µM (inactive); in the test with ACHN it was 4.28 µM (inactive); in the test on NCI-H226, 15.7 µM (inactive); with OVCAR-3, 9.06 µM (inactive); in the test on RPMI-8226 it was 4.4 µM (inactive). Moreover, the GI50 with SR is 8.43 µM (inactive); in the test with OVCAR-5, 17.5 µM (inactive); in the test on OVCAR-4, 1.78 µM (inactive); in the test on CCRF-CEM, 5.94 µM (inactive); in the test on NCI-H23, 5.26 µM (inactive); in the test with A549, 9.66 µM (inactive). Also, the GI50 with UACC-257 is 2.12 µM (inactive).
On to `N#CC(C(=O)C(N)=O)c1ccccc1Cl` (stereo unspecified), for which the GI50 in the test with A498, with UACC-62, in the test with ACHN, in the test on NCI-H226, in the test with OVCAR-3 and in the test with RPMI-8226 was > 100 µM (inactive) each time. Further, the GI50 in the test with SK-MEL-5, with OVCAR-5, with OVCAR-4, in the test on CCRF-CEM, with NCI-H23 and with A549 was > 100 µM (inactive) each time. In addition, in the test on UACC-257, the GI50 was > 100 µM (inactive).
In the case of `O=C1C(=O)N(c2ccc(Cl)cc2)C(=O)C(=O)C1c1nc2ccccc2s1`, the GI50 was > 100 µM (inactive) in the test on HOP-92; > 100 µM (inactive) with UACC-62; 89.3 µM (inactive) in the test with ACHN; > 100 µM (inactive) in the test with NCI-H226; > 100 µM (inactive) in the test on OVCAR-3; > 100 µM (inactive) in the test with RPMI-8226. Also, the GI50 with SK-MEL-5, with OVCAR-5, with OVCAR-4, in the test with NCI-H23 and with UACC-257 was > 100 µM (inactive) each time.
As for `Cc1cc(N(CCC#N)CCC#N)ccc1/C=C1N=C(/C=C\c2ccccc2)N(NC(=O)CC(=O)Nc2ccccc2Cl)C\1=O`, the GI50 in the test with HOP-92, in the test with A498, with UACC-62, in the test with ACHN, with NCI-H226 and in the test on OVCAR-3 was > 100 µM (inactive) in each case. The GI50 in the test with RPMI-8226, in the test with SK-MEL-5, in the test with OVCAR-5, in the test on OVCAR-4, in the test with CCRF-CEM and in the test on NCI-H23 was > 100 µM (inactive) throughout. Also, the GI50 with A549 and with UACC-257 was > 100 µM (inactive) throughout.
For the molecule `CCCC1N2CCCCC2[C@@H]2c3[nH]c4ccccc4c3CCN12` (stereo partly specified), the GI50 in the test on HOP-92 was > 100 µM (inactive); in the test on A498, > 100 µM (inactive); in the test on UACC-62, 85.1 µM (inactive); in the test with ACHN, > 100 µM (inactive); in the test on OVCAR-3, > 100 µM (inactive); with RPMI-8226, > 100 µM (inactive). The GI50 in the test on SK-MEL-5, in the test with OVCAR-5, in the test with OVCAR-4, with CCRF-CEM, in the test on NCI-H23 and with A549 was > 100 µM (inactive) in each case. In addition, the GI50 in the test on UACC-257 was > 100 µM (inactive).
